# PubChem BioAssay (NCI)
#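 Here, GI50 denotes the concentration required for 50% inhibition of growth. The concentration for full growth arrest is given as TGI.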
# What was measured:
# Experiment in all cases: NCI anticancer screen, dose series, 384-well format
# [1] = test system: ACHN renal
# [2] = test system: DU-145 prostate
# [3] = test system: NCI-H322M lung
# [4] = test system: U251 glioblastoma
# [5] = test system: RPMI-8226 leukemia
# [6] = test system: SNB-75 CNS
# [7] = test system: BT-549 breast
# [8] = test system: M14 melanoma
# [9] = test system: HCT-116 colon
# [10] = test system: NCI-H460 NSCLC
# [11] = test system: SR leukemia
# [12] = test system: NCI-H522 lung
# [13] = test system: MCF7 breast
# [14] = test system: NCI-H226 lung
# [15] = test system: UACC-62 melanoma
# [16] = test system: SW-620 colon
# [17] = test system: MDA-MB-468 breast
# [18] = test system: OVCAR-4 ovarian
# [19] = test system: KM12 colon
# [20] = test system: HT29 colon
# [21] = test system: HCC-2998 colon
# [22] = test system: OVCAR-8 ovarian
# [23] = test system: A549 NSCLC
# [24] = test system: SN12C renal
# [25] = test system: CCRF-CEM leukemia
# [26] = test system: RXF 393 renal
# [27] = test system: SF-295 CNS
# [28] = test system: A498 renal
# [29] = test system: TK-10 renal
# [30] = test system: NCI/ADR-RES ovarian
# [31] = test system: T-47D breast
# [32] = test system: UACC-257 melanoma
# [33] = test system: EKVX NSCLC
# [34] = test system: 786-0 renal
# [35] = test system: HL-60(TB) leukemia
# [36] = test system: NCI-H23 lung
# [37] = test system: SK-MEL-5 melanoma
# [38] = test system: MDA-MB-435 melanoma
# [39] = test system: SK-OV-3 ovarian
# [40] = test system: HCT-15 colon
# [41] = test system: HS 578T breast
# [42] = test system: CAKI-1 renal
# [43] = test system: SNB-19 CNS
# [44] = test system: K-562 leukemia
# [45] = test system: HOP-62 NSCLC
# [46] = test system: SK-MEL-28 melanoma
# [47] = test system: SF-539 CNS
# [48] = test system: MOLT-4 leukemia
# [49] = test system: COLO 205 colon
# [50] = test system: MDA-MB-231 breast
# [51] = test system: OVCAR-3 ovarian
# [52] = test system: SF-268 CNS
# [53] = test system: LOX IMVI melanoma
# [54] = test system: MALME-3M melanoma
# [55] = test system: UO-31 renal
# [56] = test system: HOP-92 NSCLC
# [57] = test system: OVCAR-5 ovarian
# [58] = test system: IGROV1 ovarian
# [59] = test system: PC-3 prostate
# [60] = test system: SK-MEL-2 melanoma
smiles,measurement,setting,value
CCc1cc(C(N)=O)ccc1-n1nc(C(C)C)c2c(-n3cnc(-c4cnn(C)c4)c3)ccnc21,GI50,[1],902 nM
same,TGI,[1],> 100000 nM
same,GI50,[2],369 nM
same,TGI,[2],5800 nM
same,GI50,[3],799 nM
same,TGI,[3],> 100000 nM
same,GI50,[4],485 nM
same,TGI,[4],3080 nM
same,GI50,[5],376 nM
same,TGI,[5],1090 nM
same,GI50,[6],402 nM
same,TGI,[6],2020 nM
same,GI50,[7],651 nM
same,TGI,[7],9960 nM
same,GI50,[8],488 nM
same,TGI,[8],23000 nM
same,GI50,[9],561 nM
same,TGI,[9],82900 nM
same,GI50,[10],285 nM
same,TGI,[10],645 nM
same,GI50,[11],169 nM
same,TGI,[11],329 nM
same,GI50,[12],210 nM
same,TGI,[12],458 nM
same,GI50,[13],305 nM
same,TGI,[13],> 100000 nM
same,GI50,[14],3040 nM
same,TGI,[14],> 100000 nM
same,GI50,[15],702 nM
same,TGI,[15],3240 nM
same,GI50,[16],407 nM
same,TGI,[16],15500 nM
same,GI50,[17],276 nM
same,TGI,[17],595 nM
same,GI50,[18],6010 nM
same,TGI,[18],> 100000 nM
same,GI50,[19],374 nM
same,TGI,[19],> 100000 nM
same,GI50,[20],398 nM
same,TGI,[20],> 100000 nM
same,GI50,[21],406 nM
same,TGI,[21],1870 nM
same,GI50,[22],396 nM
same,TGI,[22],1620 nM
same,GI50,[23],411 nM
same,TGI,[23],> 100000 nM
same,GI50,[24],412 nM
same,TGI,[24],2440 nM
same,GI50,[25],289 nM
same,TGI,[25],1250 nM
same,GI50,[26],236 nM
same,TGI,[26],614 nM
same,GI50,[27],426 nM
same,TGI,[27],1660 nM
same,GI50,[28],1110 nM
same,TGI,[28],> 100000 nM
same,GI50,[29],487 nM
same,TGI,[29],> 100000 nM
same,GI50,[30],16900 nM
same,TGI,[30],75400 nM
same,GI50,[31],1590 nM
same,TGI,[31],10100 nM
same,GI50,[32],5930 nM
same,TGI,[32],> 100000 nM
same,GI50,[33],712 nM
same,TGI,[33],> 100000 nM
same,GI50,[34],825 nM
same,TGI,[34],> 100000 nM
same,GI50,[35],189 nM
same,TGI,[35],405 nM
same,GI50,[36],301 nM
same,TGI,[36],873 nM
same,GI50,[37],532 nM
same,TGI,[37],39100 nM
same,GI50,[38],653 nM
same,TGI,[38],> 100000 nM
same,GI50,[39],738 nM
same,TGI,[39],> 100000 nM
same,GI50,[40],534 nM
same,TGI,[40],> 100000 nM
same,GI50,[41],418 nM
same,TGI,[41],2230 nM
same,GI50,[42],767 nM
same,TGI,[42],> 100000 nM
same,GI50,[43],778 nM
same,TGI,[43],> 100000 nM
same,GI50,[44],326 nM
same,TGI,[44],3660 nM
same,GI50,[45],584 nM
same,TGI,[45],> 100000 nM
same,GI50,[46],387 nM
same,TGI,[46],20000 nM
same,GI50,[47],304 nM
same,TGI,[47],768 nM
same,GI50,[48],182 nM
same,TGI,[48],349 nM
same,GI50,[49],392 nM
same,TGI,[49],> 100000 nM
same,GI50,[50],643 nM
same,TGI,[50],6070 nM
same,GI50,[51],454 nM
same,TGI,[51],2230 nM
same,GI50,[52],510 nM
same,TGI,[52],> 100000 nM
same,GI50,[53],382 nM
same,TGI,[53],1260 nM
same,GI50,[54],240 nM
same,TGI,[54],502 nM
same,GI50,[55],1130 nM
same,TGI,[55],> 100000 nM
same,GI50,[56],675 nM
same,TGI,[56],3060 nM
COc1ccc(C(=O)CC2(O)C(=O)Nc3c(Cl)ccc(Cl)c32)cc1 (stereo not drawn),GI50,[1],7900 nM
same,TGI,[1],> 100000 nM
same,GI50,[2],2790 nM
same,TGI,[2],12100 nM
same,GI50,[3],5820 nM
same,TGI,[3],> 100000 nM
same,GI50,[4],1130 nM
same,TGI,[4],12500 nM
same,GI50,[5],1170 nM
same,TGI,[5],2560 nM
same,GI50,[6],2260 nM
same,TGI,[6],15800 nM
same,GI50,[7],509 nM
same,TGI,[7],10900 nM
same,GI50,[8],529 nM
same,TGI,[8],2570 nM
same,GI50,[57],9830 nM
same,TGI,[57],> 100000 nM
same,GI50,[9],568 nM
same,TGI,[9],32100 nM
same,GI50,[10],477 nM
same,TGI,[10],2480 nM
same,GI50,[58],2780 nM
same,TGI,[58],> 100000 nM
same,GI50,[11],113 nM
same,TGI,[11],256 nM
same,GI50,[12],264 nM
same,TGI,[12],587 nM
same,GI50,[13],1070 nM
same,TGI,[13],21000 nM
same,GI50,[14],6250 nM
same,TGI,[14],50000 nM
same,GI50,[15],380 nM
same,TGI,[15],4270 nM
same,GI50,[16],452 nM
same,TGI,[16],> 100000 nM
same,GI50,[17],215 nM
same,TGI,[17],571 nM
same,GI50,[18],8800 nM
same,TGI,[18],85600 nM
same,GI50,[19],467 nM
same,TGI,[19],25600 nM
same,GI50,[21],1800 nM
same,TGI,[21],36200 nM
same,GI50,[23],2100 nM
same,TGI,[23],> 100000 nM
same,GI50,[24],3280 nM
same,TGI,[24],20800 nM
same,GI50,[25],656 nM
same,TGI,[25],1900 nM
same,GI50,[26],960 nM
same,TGI,[26],5080 nM
same,GI50,[59],2270 nM
same,TGI,[59],> 100000 nM
same,GI50,[27],1550 nM
same,TGI,[27],8410 nM
same,GI50,[28],3720 nM
same,TGI,[28],46700 nM
same,GI50,[29],1360 nM
same,TGI,[29],> 100000 nM
same,GI50,[30],346 nM
same,TGI,[30],1360 nM
same,GI50,[31],9170 nM
same,TGI,[31],52000 nM
same,GI50,[32],6690 nM
same,TGI,[32],21600 nM
same,GI50,[33],3810 nM
same,TGI,[33],52000 nM
same,GI50,[34],3610 nM
same,TGI,[34],21700 nM
same,GI50,[35],237 nM
same,TGI,[35],474 nM
same,GI50,[36],1970 nM
same,TGI,[36],12100 nM
same,GI50,[37],663 nM
same,TGI,[37],5850 nM
same,GI50,[38],207 nM
same,TGI,[38],431 nM
same,GI50,[39],2560 nM
same,TGI,[39],95600 nM
same,GI50,[40],369 nM
same,TGI,[40],14400 nM
same,GI50,[41],1090 nM
same,TGI,[41],2760 nM
same,GI50,[42],679 nM
same,TGI,[42],> 100000 nM
same,GI50,[43],2320 nM
same,TGI,[43],32800 nM
same,GI50,[44],354 nM
same,TGI,[44],1650 nM
same,GI50,[45],1260 nM
same,TGI,[45],47800 nM
same,GI50,[46],15900 nM
same,TGI,[46],> 100000 nM
same,GI50,[47],1680 nM
same,TGI,[47],5350 nM
same,GI50,[48],216 nM
same,TGI,[48],426 nM
same,GI50,[49],646 nM
same,TGI,[49],> 100000 nM
same,GI50,[50],13200 nM
same,TGI,[50],> 100000 nM
same,GI50,[51],382 nM
same,TGI,[51],1250 nM
same,GI50,[52],10600 nM
same,TGI,[52],31300 nM
same,GI50,[53],4440 nM
same,TGI,[53],21000 nM
same,GI50,[54],13900 nM
same,TGI,[54],45400 nM
same,GI50,[55],8450 nM
same,TGI,[55],> 100000 nM
same,GI50,[56],9020 nM
same,TGI,[56],54500 nM
same,GI50,[60],864 nM
same,TGI,[60],3020 nM
